# Assay results taken from patent US7202280B2, “Methods for the treatment and prevention of pancreatitis and for induction of liver regeneration” (priority 2002, dated 2007).
# Tested on: syngenic and metallothionein-SSAT mice
# Assay: Hepatic, pancreatic and renal polyamine concentration in syngenic and metallothionein-SSAT mice after analogue
# Format: in vivo, mouse
# Conditions: 24 h
# Method: α-methylspermidine, Bis-α-methylspermine and α-methylspermine were administered in saline. […] The data are expressed as means ±S.D. For statistical analysis, the two-tailed Student's t test was used.
smiles,measurement,setting,value
"CC(N)CCNCCCCN (stereo not drawn) [α-methylspermidine, 1-methylspermidine]",renal Spermidine,"Sg mice, 500 mg/kg",181.32 ± 28.81 pmoles/mg tissue wet weight
same,renal Spermine,"Sg mice, 500 mg/kg",458.07 ± 107.68 pmoles/mg tissue wet weight
same,renal α-Methylspermidine,"Sg mice, 500 mg/kg",1078.16 pmoles/mg tissue wet weight
same,hepatic N^1-Acetyl-spermidine,"Tg mice, 50 mg/kg",245.16 pmoles/mg tissue wet weight
same,hepatic Putrescine,"Tg mice, 50 mg/kg",1055.38 pmoles/mg tissue wet weight
same,hepatic Spermidine,"Tg mice, 50 mg/kg",329.57 pmoles/mg tissue wet weight
same,hepatic Spermine,"Tg mice, 50 mg/kg",103.26 ± 188.21 pmoles/mg tissue wet weight
same,hepatic α-Methyl-spermidine,"Tg mice, 50 mg/kg",582.62 pmoles/mg tissue wet weight
same,pancreatic N^1-Acetyl-spermidine,"Tg mice, 50 mg/kg",204.43 pmoles/mg tissue wet weight
same,pancreatic Putrescine,"Tg mice, 50 mg/kg",4968.25 pmoles/mg tissue wet weight
same,pancreatic Spermidine,"Tg mice, 50 mg/kg",1316.94 ± 248.44 pmoles/mg tissue wet weight
same,pancreatic Spermine,"Tg mice, 50 mg/kg",224.17 pmoles/mg tissue wet weight
same,pancreatic α-Methyl-spermidine,"Tg mice, 50 mg/kg",627.87 pmoles/mg tissue wet weight
same,renal N^1-Acetylspermidine,"Tg mice, 50 mg/kg",49.14 pmoles/mg tissue wet weight
same,renal Putrescine,"Tg mice, 50 mg/kg",179.10 pmoles/mg tissue wet weight
same,renal Spermidine,"Tg mice, 50 mg/kg",231.02 ± 15.59 pmoles/mg tissue wet weight
same,renal Spermine,"Tg mice, 50 mg/kg",896.89 ± 25.61 pmoles/mg tissue wet weight
same,renal α-Methylspermidine,"Tg mice, 50 mg/kg",133.67 pmoles/mg tissue wet weight
same,hepatic N^1-Acetyl-spermidine,"Tg mice, 100 mg/kg",293.66 pmoles/mg tissue wet weight
same,hepatic Putrescine,"Tg mice, 100 mg/kg",834.88 pmoles/mg tissue wet weight
same,hepatic Spermidine,"Tg mice, 100 mg/kg",286.11 pmoles/mg tissue wet weight
same,hepatic Spermine,"Tg mice, 100 mg/kg",97.52 ± 52.21 pmoles/mg tissue wet weight
same,hepatic α-Methyl-spermidine,"Tg mice, 100 mg/kg",676.44 pmoles/mg tissue wet weight
same,pancreatic N^1-Acetyl-spermidine,"Tg mice, 100 mg/kg",656.51 pmoles/mg tissue wet weight
same,pancreatic Putrescine,"Tg mice, 100 mg/kg",4467.46 pmoles/mg tissue wet weight
same,pancreatic Spermidine,"Tg mice, 100 mg/kg",1539.88 ± 351.44 pmoles/mg tissue wet weight
same,pancreatic Spermine,"Tg mice, 100 mg/kg",211.73 pmoles/mg tissue wet weight
same,pancreatic α-Methyl-spermidine,"Tg mice, 100 mg/kg",731.63 pmoles/mg tissue wet weight
same,renal N^1-Acetylspermidine,"Tg mice, 100 mg/kg",65.00 pmoles/mg tissue wet weight
same,renal Putrescine,"Tg mice, 100 mg/kg",133.86 pmoles/mg tissue wet weight
same,renal Spermidine,"Tg mice, 100 mg/kg",212.40 ± 10.9 pmoles/mg tissue wet weight
same,renal Spermine,"Tg mice, 100 mg/kg",840.58 ± 67.32 pmoles/mg tissue wet weight
same,renal α-Methylspermidine,"Tg mice, 100 mg/kg",136.61 pmoles/mg tissue wet weight
same,hepatic N^1-Acetyl-spermidine,"Tg mice, 150 mg/kg",230.96 pmoles/mg tissue wet weight
same,hepatic Putrescine,"Tg mice, 150 mg/kg",603.18 pmoles/mg tissue wet weight
same,hepatic Spermidine,"Tg mice, 150 mg/kg",260.13 pmoles/mg tissue wet weight
same,hepatic Spermine,"Tg mice, 150 mg/kg",79.41 ± 25.11 pmoles/mg tissue wet weight
same,hepatic α-Methyl-spermidine,"Tg mice, 150 mg/kg",1206.94 pmoles/mg tissue wet weight
same,pancreatic N^1-Acetyl-spermidine,"Tg mice, 150 mg/kg",185.50 pmoles/mg tissue wet weight
same,pancreatic Putrescine,"Tg mice, 150 mg/kg",4457.91 pmoles/mg tissue wet weight
same,pancreatic Spermidine,"Tg mice, 150 mg/kg",1244.49 ± 565.07 pmoles/mg tissue wet weight
same,pancreatic Spermine,"Tg mice, 150 mg/kg",213.86 pmoles/mg tissue wet weight
same,pancreatic α-Methyl-spermidine,"Tg mice, 150 mg/kg",942.74 pmoles/mg tissue wet weight
same,renal N^1-Acetylspermidine,"Tg mice, 150 mg/kg",41.78 pmoles/mg tissue wet weight
same,renal Putrescine,"Tg mice, 150 mg/kg",119.47 pmoles/mg tissue wet weight
same,renal Spermidine,"Tg mice, 150 mg/kg",201.24 ± 19.1 pmoles/mg tissue wet weight
same,renal Spermine,"Tg mice, 150 mg/kg",721.39 ± 64.84 pmoles/mg tissue wet weight
same,renal α-Methylspermidine,"Tg mice, 150 mg/kg",148.99 pmoles/mg tissue wet weight
same,hepatic N^1-Acetyl-spermidine,"Tg mice, 250 mg/kg",211.54 pmoles/mg tissue wet weight
same,hepatic Putrescine,"Tg mice, 250 mg/kg",444.97 pmoles/mg tissue wet weight
same,hepatic Spermidine,"Tg mice, 250 mg/kg",199.53 pmoles/mg tissue wet weight
same,hepatic Spermine,"Tg mice, 250 mg/kg",36.38 ± 9.89 pmoles/mg tissue wet weight
same,hepatic α-Methyl-spermidine,"Tg mice, 250 mg/kg",1293.76 pmoles/mg tissue wet weight
same,pancreatic N^1-Acetyl-spermidine,"Tg mice, 250 mg/kg",137.01 pmoles/mg tissue wet weight
same,pancreatic Putrescine,"Tg mice, 250 mg/kg",4637.87 pmoles/mg tissue wet weight
same,pancreatic Spermidine,"Tg mice, 250 mg/kg",967.83 ± 396.04 pmoles/mg tissue wet weight
same,pancreatic Spermine,"Tg mice, 250 mg/kg",157.23 pmoles/mg tissue wet weight
same,pancreatic α-Methyl-spermidine,"Tg mice, 250 mg/kg",1166.56 pmoles/mg tissue wet weight
same,renal N^1-Acetylspermidine,"Tg mice, 250 mg/kg",48.47 pmoles/mg tissue wet weight
same,renal Putrescine,"Tg mice, 250 mg/kg",103.63 pmoles/mg tissue wet weight
same,renal Spermidine,"Tg mice, 250 mg/kg",185.82 ± 18.56 pmoles/mg tissue wet weight
same,renal Spermine,"Tg mice, 250 mg/kg",597.01 ± 91.36 pmoles/mg tissue wet weight
same,renal α-Methylspermidine,"Tg mice, 250 mg/kg",169.73 pmoles/mg tissue wet weight
same,hepatic N^1-Acetyl-spermidine,"Tg mice, 375 mg/kg",252.33 pmoles/mg tissue wet weight
same,hepatic Putrescine,"Tg mice, 375 mg/kg",861.39 pmoles/mg tissue wet weight
same,hepatic Spermidine,"Tg mice, 375 mg/kg",168.25 pmoles/mg tissue wet weight
same,hepatic Spermine,"Tg mice, 375 mg/kg",41.95 ± 8.02 pmoles/mg tissue wet weight
same,hepatic α-Methyl-spermidine,"Tg mice, 375 mg/kg",1012.46 pmoles/mg tissue wet weight
same,pancreatic N^1-Acetyl-spermidine,"Tg mice, 375 mg/kg",95.41 pmoles/mg tissue wet weight
same,pancreatic Putrescine,"Tg mice, 375 mg/kg",4826.59 pmoles/mg tissue wet weight
same,pancreatic Spermidine,"Tg mice, 375 mg/kg",1002.33 ± 365.29 pmoles/mg tissue wet weight
same,pancreatic Spermine,"Tg mice, 375 mg/kg",122.49 pmoles/mg tissue wet weight
same,pancreatic α-Methyl-spermidine,"Tg mice, 375 mg/kg",1378.62 pmoles/mg tissue wet weight
same,renal N^1-Acetylspermidine,"Tg mice, 375 mg/kg",44.65 pmoles/mg tissue wet weight
same,renal Putrescine,"Tg mice, 375 mg/kg",127.41 pmoles/mg tissue wet weight
same,renal Spermidine,"Tg mice, 375 mg/kg",173.73 ± 13.69 pmoles/mg tissue wet weight
same,renal Spermine,"Tg mice, 375 mg/kg",580.26 ± 51.87 pmoles/mg tissue wet weight
same,renal α-Methylspermidine,"Tg mice, 375 mg/kg",192.90 pmoles/mg tissue wet weight
